These are literature values, as cited in patent publication US11491245B2, “Gadolinium chelate compounds for use in magnetic resonance imaging” (BAYER PHARMA AKTIENGESELLSCHAFT, priority 2015, dated 2022).

For this data set the following is noted: 37° C., cited from earlier work; for r1 FBS: bovine plasma.
Setting [1] is: reference compounds (marked ^), 3.0 T, average ± standard deviation.
[2] abbreviates: reference compounds, 1.5 T, from Rohrer et al.

Read-outs that look alike come from different tables or passages of the source.

Regarding `CNC[C@H](O)[C@@H](O)[C@H](O)[C@H](O)CO.CNC[C@H](O)[C@@H](O)[C@H](O)[C@H](O)CO.O=C([O-])CN(CCN(CC(=O)[O-])CC(=O)O)CCN(CC(=O)[O-])CC(=O)O.[Gd+3]` [Reference compound 2, gadopentetate dimeglumine], under setting [1], the r1 human plasma was 3.7 ± 0.2 L/mmol/s and the r1 water was 3.1 ± 0.3 L/mmol/s. Besides, under setting [2], the “r1 FBS” value is 4.1 L/mmol/s and the r1 water is 3.3 L/mmol/s.

Regarding `CCOc1ccc(CC(CN(CCN(CC(=O)[O-])CC(=O)[O-])CC(=O)[O-])N(CC(=O)[O-])CC(=O)[O-])cc1.[Gd+3].[Na+].[Na+]` (stereo not drawn) [Reference compound 3, gadoxetate disodium], under setting [1], the r1 human plasma is 6.2 ± 0.3 L/mmol/s and the r1 water was 4.3 ± 0.3 L/mmol/s. Under setting [2], the “r1 FBS” value was 6.9 L/mmol/s and the r1 water is 4.7 L/mmol/s.

In the case of Gadomer-17 [Reference compound 4], under setting [1], the r1 human plasma was 13 ± 1 L/mmol/s and the r1 water is 13.0 ± 0.7 L/mmol/s. Besides, under setting [2], the “r1 FBS” value is 16 L/mmol/s and the r1 water was 17.3 L/mmol/s.
